Reference: patent publication US12398235B2, “Oligomeric epoxy pre-polymers comprising isosorbide units” (ROQUETTE FRERES, priority 2020, dated 2025)

Test system: bacterial strain (mutant bacterial colonies)
Assay: Ames test of epoxy pre-polymers (mutagenic potential)
Format: cell-based
Settings: number of mutant bacterial colonies from a given strain exposed to the compound, non-toxic at induction ratio of 2 or less
Protocol: In order to determine the mutagenic potential of the epoxy pre-polymers, an Ames test was carried out on different Mn and EEW epoxy resins. The results are expressed in induction levels, that is, the number of mutant bacterial colonies obtained from a given strain exposed to the compound. The resin is considered to be non-toxic in the case of an induction ratio of 2 or less.

## C1OC1COC1COC2C(OCC3CO3)COC12 (stereo not shown) [IDGE 1* fraction, isosorbide diglycidylether]
  Induction ratio: 20.2
